Test results taken from ChEMBL document CHEMBL5537173, “Emerging Drug Targets for Antimalarial Drug Discovery: Validation and Insights into Molecular Mechanisms of Function” (J Med Chem, 2024).
pIC50: −log10 of the molar value.

Experiments:
[1] = biological target: cGMP-dependent protein kinase (Plasmodium falciparum, UniProt W7JX98); test: Inhibition of Plasmodium falciparum NF54 PKG
[2] = Inhibition of Plasmodium falciparum 3D7 EF2
Plasmepsin V = Plasmepsin V (Plasmodium vivax, UniProt A0A0H4FQ60); test: Inhibition of recombinant Plasmodium vivax Plasmepsin V
Plasmepsin V, sequence (A0A0H4FQ60 whole entry): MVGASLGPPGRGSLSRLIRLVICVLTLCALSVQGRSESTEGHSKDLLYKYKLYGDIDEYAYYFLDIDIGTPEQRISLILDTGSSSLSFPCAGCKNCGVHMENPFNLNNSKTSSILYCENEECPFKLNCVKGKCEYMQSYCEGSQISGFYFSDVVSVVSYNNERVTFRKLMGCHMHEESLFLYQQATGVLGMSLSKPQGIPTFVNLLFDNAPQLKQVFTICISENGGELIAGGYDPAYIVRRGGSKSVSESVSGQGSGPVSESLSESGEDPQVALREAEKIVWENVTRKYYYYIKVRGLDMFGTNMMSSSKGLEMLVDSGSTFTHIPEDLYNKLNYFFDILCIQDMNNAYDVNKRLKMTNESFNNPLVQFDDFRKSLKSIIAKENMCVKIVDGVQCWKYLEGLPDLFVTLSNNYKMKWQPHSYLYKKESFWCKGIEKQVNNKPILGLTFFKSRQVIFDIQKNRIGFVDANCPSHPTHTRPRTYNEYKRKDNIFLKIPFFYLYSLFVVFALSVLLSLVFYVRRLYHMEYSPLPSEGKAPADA

cGMP-dependent protein kinase, sequence (W7JX98 whole entry): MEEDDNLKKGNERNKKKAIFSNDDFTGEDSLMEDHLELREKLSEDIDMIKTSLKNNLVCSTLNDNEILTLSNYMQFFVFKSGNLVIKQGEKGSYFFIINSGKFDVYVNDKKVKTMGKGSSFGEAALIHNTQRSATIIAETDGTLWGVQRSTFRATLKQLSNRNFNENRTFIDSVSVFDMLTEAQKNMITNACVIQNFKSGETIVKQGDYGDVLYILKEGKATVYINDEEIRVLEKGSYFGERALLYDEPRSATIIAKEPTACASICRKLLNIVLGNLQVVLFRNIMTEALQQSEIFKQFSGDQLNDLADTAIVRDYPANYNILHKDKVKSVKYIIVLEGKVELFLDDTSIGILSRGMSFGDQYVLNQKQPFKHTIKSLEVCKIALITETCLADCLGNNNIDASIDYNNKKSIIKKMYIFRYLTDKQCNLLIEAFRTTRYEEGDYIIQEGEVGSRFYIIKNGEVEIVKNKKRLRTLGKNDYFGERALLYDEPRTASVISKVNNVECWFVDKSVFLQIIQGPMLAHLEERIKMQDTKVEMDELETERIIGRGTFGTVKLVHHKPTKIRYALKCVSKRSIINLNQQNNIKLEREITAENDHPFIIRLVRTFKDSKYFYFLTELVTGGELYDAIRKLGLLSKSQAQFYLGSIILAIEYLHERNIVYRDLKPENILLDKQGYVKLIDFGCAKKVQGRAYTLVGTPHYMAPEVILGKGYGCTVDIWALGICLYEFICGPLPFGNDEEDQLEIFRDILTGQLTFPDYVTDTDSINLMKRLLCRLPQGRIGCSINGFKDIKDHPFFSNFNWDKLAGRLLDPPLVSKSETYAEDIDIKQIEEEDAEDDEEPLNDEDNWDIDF

**Q.** With `CN(C)Cc1ccn2c(-c3ccnc(NCC4CC4)n3)c(-c3ccc(F)c(NS(C)(=O)=O)c3)nc2c1` as the compound, how does the pIC50 [1] read?
**A.** The pIC50 was 9.80.

**Q.** With `O=C(NCCN1CCCC1)c1cc(-c2ccc(CN3CCOCC3)cc2)nc2ccc(F)cc12` [CABAMIQUINE] as the compound, how does the pIC50 [2] read?
**A.** Its pIC50 is 8.70.

**Q.** With `CC(C)C[C@H](NC(=O)[C@@H](NC(=O)[C@H](CCONC(=N)N)NC(=O)OCc1ccccc1)C(C)C)[C@@H](O)CC(=O)NCCc1ccccc1` as the compound, how does the pIC50 (Plasmepsin V) read?
**A.** The pIC50 was 9.70.
